How the values were obtained:
Assay in all cases: relative viability (nuclei count vs DMSO), 5 days (fraction); higher = more cells survive
Crizotinib + Luminespib = compound: C[C@@H](Oc1cc(-c2cnn(C3CCNCC3)c2)cnc1N)c1c(Cl)ccc(F)c1Cl [Crizotinib] + CCNC(=O)c1noc(-c2cc(C(C)C)c(O)cc2O)c1-c1ccc(CN2CCOCC2)cc1 [Luminespib] (partner 0.01 µM)
Summary of the method: (§1)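 Each reported value is a median over duplicate plates. It expresses relative viability: treated-well nuclei count divided by vehicle-well nuclei count. Lung cancer cell lines in 1536-well plates were dosed by pin tool a day after seeding, alone with one drug or with a fixed anchor-drug dose plus five library-drug doses (not always all listed) in √10 steps, and nuclei were counted after 5 days.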

Olaparib + Decitabine = compound: O=C(c1cc(Cc2n[nH]c(=O)c3ccccc23)ccc1F)N1CCN(C(=O)C2CC2)CC1 [Olaparib] + Nc1ncn([C@H]2C[C@H](O)[C@@H](CO)O2)c(=O)n1 [Decitabine] (partner 2 µM)
Summary of the method: as §1

Olaparib + Crizotinib = compound: O=C(c1cc(Cc2n[nH]c(=O)c3ccccc23)ccc1F)N1CCN(C(=O)C2CC2)CC1 [Olaparib] + C[C@@H](Oc1cc(-c2cnn(C3CCNCC3)c2)cnc1N)c1c(Cl)ccc(F)c1Cl [Crizotinib] (partner 1 µM)
Summary of the method: as §1

Crizotinib + Vorinostat = compound: C[C@@H](Oc1cc(-c2cnn(C3CCNCC3)c2)cnc1N)c1c(Cl)ccc(F)c1Cl [Crizotinib] + O=C(CCCCCCC(=O)Nc1ccccc1)NO [Vorinostat] (partner 1 µM)
Summary of the method: as §1

Cell Line	relative viability (Crizotinib + Luminespib; first compound 0.01 µM)	relative viability (Crizotinib + Luminespib; first compound 0.03162 µM)	relative viability (Crizotinib + Luminespib; first compound 0.1 µM)	relative viability (Crizotinib + Luminespib; first compound 0.3162 µM)	relative viability (Crizotinib + Luminespib; first compound 1 µM)	relative viability (Olaparib + Decitabine; first compound 0.08 µM)	relative viability (Olaparib + Decitabine; first compound 0.253 µM)	relative viability (Olaparib + Decitabine; first compound 2.53 µM)	relative viability (Olaparib + Decitabine; first compound 8 µM)	relative viability (Olaparib + Crizotinib; first compound 0.08 µM)	relative viability (Olaparib + Crizotinib; first compound 0.253 µM)	relative viability (Olaparib + Crizotinib; first compound 2.53 µM)	relative viability (Olaparib + Crizotinib; first compound 8 µM)	relative viability (Crizotinib + Vorinostat; first compound 0.01 µM)	relative viability (Crizotinib + Vorinostat; first compound 0.03162 µM)	relative viability (Crizotinib + Vorinostat; first compound 0.1 µM)	relative viability (Crizotinib + Vorinostat; first compound 0.3162 µM)	relative viability (Crizotinib + Vorinostat; first compound 1 µM)
HOP-62	0.915	0.789	0.995	0.855	0.902	0.18	0.17	0.234	0.178	1.07	0.902	0.792	0.631	0.638	0.672	0.613	0.3	0.685
IA-LM										1.14	0.877	0.583	0.54	0.977	0.958	1.07	0.949	0.907
LC-2-ad	0.953	0.943	1.09	0.942	0.91	0.618	0.623	0.557	0.509	0.368	0.388	0.472	0.406	0.703	0.656	0.699		0.704
LCLC-97TM1	0.723	0.796	0.67	0.714	0.799	0.193	0.143	0.165	0.178	0.409	0.35	0.365	0.305	0.672	0.697	0.686	0.223	0.658
LCLC-103H	0.856	0.987	0.856		1.02	0.626	0.727	0.674	0.626	1.15	1.04	1.04	0.985	0.716	0.869	0.841	0.434	0.8
LK-2	0.173	0.188	0.188		0.201	0.258	0.254	0.271	0.184	0.177	0.181	0.192	0.186	0.346	0.29	0.314	0.252	0.277
LOU-NH91	0.351	0.311	0.346	0.34	0.345	0.853	0.774	0.783	0.769	0.785	0.71	0.721	0.744	0.893	0.927	0.989		0.836
LU99A	0.234	0.22	0.254	0.23	0.246	0.933	0.753	0.601	0.566	0.522	0.495	0.427	0.42	0.448	0.515	0.512	0.459	0.507
LXF-289	0.664	0.726	0.662	0.445	0.609	0.336	0.302	0.272	0.232	0.907	0.799	0.889	0.875	0.75	0.799	0.757	0.599	0.786
NCI-H23	0.242	0.221	0.206	0.212	0.236	0.336	0.313	0.259	0.277	0.673	0.444	0.492	0.274	0.465	0.648	0.596		0.737
NCI-H322M	0.721	0.994	0.725	1	0.964	0.685	0.592	0.708	0.596	1.03	0.803	0.994	0.902		0.884	1	0.823	0.972
NCI-H358	0.464	0.431	0.488	0.416	0.334	0.148	0.157	0.23	0.138	0.606	0.541	0.651	0.518	0.793	0.658	0.718	0.725	0.697
NCI-H441	0.273	0.315	0.399		0.391	0.257	0.197	0.243	0.188	0.677	0.634	0.733	0.719	0.799	0.774	0.63	0.768	0.965
NCI-H522	1.05	1.06	1.05	1.15	1.08	0.745	0.645	0.724	0.598					0.851	1.03	0.803	0.877	0.867
NCI-H1299										1.06	0.903	0.986	0.95					
NCI-H1395	0.632	0.621	0.692	0.759	0.627	0.64	0.654	0.504	0.494					0.602	0.827	0.794	0.53	0.554
NCI-H1563	0.528	0.505	0.49	0.566	0.534					0.867	0.813	0.896	0.826					
NCI-H1623		0.469	0.502	0.486	0.5													
NCI-H1648						0.431	0.384		0.44						0.412	0.341	0.506	0.619
NCI-H1703										1.07	0.734	0.903	0.522					
NCI-H1792	0.46	0.39	0.529		0.553	0.336	0.264	0.234	0.19	1.03	0.82	0.843	0.794					
NCI-H2228	0.119	0.16	0.132	0.122	0.119					0.603	0.437	0.473	0.362	0.46	0.843	0.402	0.57	0.683
NCI-H2342	0.635	0.931	0.674	0.705	0.815	0.756	0.606	0.663	0.619					0.799	0.844	0.714	0.713	0.814
SW 900	0.172	0.164	0.19	0.194	0.175	0.355	0.331	0.413	0.355					0.422	0.615	0.511	0.481	0.712
